Like-named read-outs stand apart in the source and are kept apart here.
What was measured:
[1] = target: T1, ETA receptors (rat aortic rings) (Rattus norvegicus, UniProt P26684); assay: Inhibition of endothelin-1-induced contraction on isolated rat aortic rings
T1 construct: The thoracic aorta or trachea were excised, dissected and cut in 3–5 mm rings; from tissue; host or cells: thoracic aorta rings of adult Wistar rats, endothelium removed
T1 sequence (P26684 21-426): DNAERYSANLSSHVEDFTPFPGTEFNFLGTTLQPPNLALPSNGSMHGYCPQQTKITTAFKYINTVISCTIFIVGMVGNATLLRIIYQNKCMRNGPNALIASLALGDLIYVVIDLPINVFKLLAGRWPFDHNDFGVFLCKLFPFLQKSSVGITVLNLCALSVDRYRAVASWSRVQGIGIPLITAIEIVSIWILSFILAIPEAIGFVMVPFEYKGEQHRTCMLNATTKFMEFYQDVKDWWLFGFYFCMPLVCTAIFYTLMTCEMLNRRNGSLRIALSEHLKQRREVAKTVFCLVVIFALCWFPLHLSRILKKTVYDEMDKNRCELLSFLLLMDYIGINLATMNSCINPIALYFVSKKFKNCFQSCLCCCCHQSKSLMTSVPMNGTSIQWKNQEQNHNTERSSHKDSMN
Method: (§1) 2) Inhibition of Endothelin-induced Contractions on Isolated Rat Aortic Rings (ETA Receptors) and Rat Tracheal Rings (ETB Receptors):
(§2) The functional inhibitory potency of the endothelin antagonists was assessed by their inhibition of the contraction induced by endothelin-1 on rat aortic rings (ETA receptors) and of the contraction induced by sarafotoxin S6c on rat tracheal rings (ETB receptors). Adult Wistar rats were anesthetized and exsanguinated. The thoracic aorta or trachea were excised, dissected and cut in 3–5 mm rings. The endothelium/epithelium was removed by gentle rubbing of the intimal surface. […] The rings were connected to force transducers and isometric tension was recorded (EMKA Technologies SA, Paris, France). The rings were stretched to a resting tension of 3 g (aorta) or 2 g (trachea). […] The functional inhibitory potency of the test compound was assessed by calculating the concentration ratio, i.e. the shift to the right of the EC50 induced by different concentrations of test compound. EC50 is the concentration of endothelin needed to get a half-maximal contraction, pA2 is the negative logarithm of the antagonist concentration which induces a two-fold shift in the EC50 value.

[2] = target: T2, ETB receptors (rat tracheal rings) (Rattus norvegicus, UniProt P21451); assay: Inhibition of sarafotoxin S6c-induced contraction on isolated rat tracheal rings
T2 construct: The thoracic aorta or trachea were excised, dissected and cut in 3–5 mm rings; from tissue; host or cells: tracheal rings of adult Wistar rats, epithelium removed
T2 sequence (P21451 27-442): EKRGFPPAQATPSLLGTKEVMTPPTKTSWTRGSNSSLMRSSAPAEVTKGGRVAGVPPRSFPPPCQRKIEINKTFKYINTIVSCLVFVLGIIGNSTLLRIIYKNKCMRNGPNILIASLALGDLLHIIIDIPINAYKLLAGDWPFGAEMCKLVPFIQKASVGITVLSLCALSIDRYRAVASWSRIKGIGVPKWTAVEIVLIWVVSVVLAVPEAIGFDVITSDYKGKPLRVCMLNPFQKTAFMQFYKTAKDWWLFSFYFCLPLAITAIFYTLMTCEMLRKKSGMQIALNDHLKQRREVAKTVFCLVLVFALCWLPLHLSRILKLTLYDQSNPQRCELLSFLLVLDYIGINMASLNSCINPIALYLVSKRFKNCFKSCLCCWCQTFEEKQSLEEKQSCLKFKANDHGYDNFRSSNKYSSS
Method: as §1, §2

[3] = target: T3, human recombinant ETA receptor (Homo sapiens, UniProt P25101); assay: Inhibition of [125I]ET-1 binding to membranes from CHO cells carrying human ETA receptors
T3 construct: expressed in transfected cells; host or cells: CHO cells (microsomal membranes)
T3 sequence (P25101 21-427): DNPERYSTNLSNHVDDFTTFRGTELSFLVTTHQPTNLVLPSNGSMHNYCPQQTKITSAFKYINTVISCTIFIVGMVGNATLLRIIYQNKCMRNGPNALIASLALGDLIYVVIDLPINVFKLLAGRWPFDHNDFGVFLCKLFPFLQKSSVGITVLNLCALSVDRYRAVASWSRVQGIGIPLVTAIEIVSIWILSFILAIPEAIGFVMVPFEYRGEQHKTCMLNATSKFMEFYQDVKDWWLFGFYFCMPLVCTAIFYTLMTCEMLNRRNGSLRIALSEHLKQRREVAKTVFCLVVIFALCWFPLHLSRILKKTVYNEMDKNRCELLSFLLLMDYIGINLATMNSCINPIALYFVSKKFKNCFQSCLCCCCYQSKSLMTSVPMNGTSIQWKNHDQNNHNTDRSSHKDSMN

[4] = target: T4, human recombinant ETB receptor (Homo sapiens, UniProt P24530); assay: Inhibition of [125I]ET-1 binding to membranes from CHO cells carrying human ETB receptors
T4 construct: expressed in transfected cells; host or cells: CHO cells (microsomal membranes)
T4 sequence (P24530 27-442): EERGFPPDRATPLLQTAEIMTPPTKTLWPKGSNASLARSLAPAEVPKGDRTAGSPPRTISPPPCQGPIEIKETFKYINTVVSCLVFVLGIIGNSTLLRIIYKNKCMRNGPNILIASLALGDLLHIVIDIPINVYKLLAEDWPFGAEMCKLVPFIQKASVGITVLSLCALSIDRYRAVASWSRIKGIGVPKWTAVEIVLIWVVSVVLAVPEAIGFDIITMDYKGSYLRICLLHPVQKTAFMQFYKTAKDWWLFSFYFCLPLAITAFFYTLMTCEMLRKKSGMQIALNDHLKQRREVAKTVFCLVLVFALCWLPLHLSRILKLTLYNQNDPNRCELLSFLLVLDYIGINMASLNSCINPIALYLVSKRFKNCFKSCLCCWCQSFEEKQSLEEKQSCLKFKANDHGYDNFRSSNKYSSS

Row | Compound | Kb ([1]; read-out: pA2 value ETA (converted)) | Kb [2] | IC50 [3] | IC50 [4] | Kb [1]
1 | O=S(=O)(NCc1ccccn1)Nc1ncnc(OCCOc2ncc(Br)cn2)c1-c1ccc(Cl)cc1 [Example 18] | 7.08 nM | > 10000 nM | 8.5 nM | 3330 nM | 
2 | CSc1cnc(OCCOc2ncnc(NS(=O)(=O)NCc3ccccc3)c2-c2ccc(Br)cc2)nc1 [Example 102] |  | 174 nM | 0.46 nM | 65 nM | 3.98 nM
